The results in this text go back to US20050037989A1, “Inhibition of gene function by delivery of polynucleotide-based gene expression inhibitors to mammalian cells in vivo” (priority 2001, published 2005).

d = 2'-deoxy (DNA); r = 2'-OH (RNA)

The test system of data set [1] is mouse HMG CoA reductase mRNA. In words: Serum triglyceride levels after tail vein injection of siRNA against HMG CoA reductase. The format is in vivo, Apoetm1Unc mice. Conditions: for Triglyceride levels: absorbance at 520 nm. How it is done:
Group A (series2) mice (5 mice) were each injected with 50 μg of an siRNA directed against mouse HMG CoA reductase mRNA. Group B (Series 1) mice (5 mice) were an uninjected control group. Group A and Group B animals were bled 7 days before, 2 days after, 4 days after, and 7 days after the injection. Serum samples were stored at −20° C. until all timepoints had been collected. Each group's serum samples from a given time-point were pooled prior to the triglyceride assays. Triglyceride assays were performed in quintuplicate.
A total of 50 μg of siRNA-HMGCR was dissolved in 2.2 ml Ringer's solution (147 mM NaCl, 4 mM KCl, 1.13 mM CaCl2), and injected into the tail vein of ApoE (−/−) mice over 7-12 seconds. Control mice were not injected and are referred to here as naive. Each mouse was bled from the retro-orbital sinus at various times prior to and after injection. Cells and clotting factors were pelleted from the blood to obtain serum. The serum triglyceride levels were then assayed by a enzymatic, colorimetric assay using the Infinity Triglyceride Reagent (Sigma Co.).
Triglyceride assays. Serum samples were diluted 1:100 in the Infinity Triglyceride Reagent (2 μl in 200 μl) in a clear, 96-well plate. Each assay plate was then incubated at 37° C. for five minutes, removed and allowed to cool to room temperature. Absorbance was measured at 520 nm using a SpectraMax Plus plate reader (Molecular Devices, Inc). Background absorbance (no serum added) was subtracted from each reading and the resulted data was plotted versus timepoint.

The subject of data set [2] is HMGCR mRNA in primary hepatocytes. Kind of data set: HMGCR mRNA in primary hepatocytes cultured with anti-HMGCR siRNA and/or atorvastatin (qPCR). Conditions: siRNA alone, 24 hours. The format is cell-based, C57B6 mice. How it is done:
qPCR assays. Quantitative, real-time PCR was performed using the Bio-Rad icycler system and iCycler reagents as recommended by the manufacturer. The primers used to amplify HMGCR sequences were SEQ ID 17 and SEQ ID 31.
Total RNA from these cells was isolated and transcribed into cDNA using an oligo-dT primer and reverse transcriptase. Subsequently, HMGCR levels were assayed using quantitative, real-time PCR.
On the technique in general: Quantitative PCR measures a nucleic acid by following its amplification.

Regarding “siRNA-HMGCR: annealed oligomers SEQ ID 25 and SEQ ID 26, positions 2324-2344 of murine HMG CoA reductase reading frame (Examples 16, 18) (chain 1 ACAUUGUCACUGCUAUCUATT; chain 2 UAGAUAGCAGUGACAAUGUTT; sugars from the 5' end r19 d2, backbone not given here; listed as Mus musculus)”, the “triglyceride levels (in words)” value in data set [1] (50 μg siRNA tail vein, after 7 days) was “returned to normal levels”. For the same substance, the triglyceride levels reduced is reported as 62% in data set [1] (50 μg siRNA tail vein, after two days) and 56% in data set [1] (50 μg siRNA tail vein, second value, printed again as after two days). Besides, the Triglyceride levels worked out at 0.082 ± 0.006 in data set [1] (day +2, pooled serum); 0.095 ± 0.005 in data set [1] (day +4, pooled serum); 0.189 ± 0.012 in data set [1] (day +7, pooled serum); 0.218 ± 0.008 in data set [1] (day −7 (before injection), pooled serum). Besides, the “HMGCR mRNA, % of that seen in control cells” value in data set [2] is on record as “approximately 20%”.
